# Test results reported in US20250129054A1 (Terran Biosciences Inc., priority 2022, published 2025).
# Where “and” joins values, the source holds several entries; their conditions need not be identical. Equal entries are not always repeated. Where two headings read alike, the source gives them in different places.
# Experiments:
# [1] = cited from earlier work
# [2] = Serial tail vein bleed PK study in SD rats: methylone measured in plasma after IV or oral methylone or oral methylone prodrugs; assay type: in vivo, Sprague Dawley rats; conditions: methylone in plasma, male SD rats; for half-life: read-out: T½ (converted)
# In short: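 Three male Sprague-Dawley rats received methylone at 1 mg/kg IV (saline) or 10 mg/kg PO, or prodrugs at 10 mg/kg PO in 10% DMSO/20% PEG400/70% water, doses as methylone equivalents. Methylone measured in serial plasma samples. Non-compartmental PK parameters derived from nominal doses.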
# [3] = male, Sprague-Dawley, rat, plasma, iv, 1 mg/kg, methylone 1 mg/kg IV, individual animals
# [4] = male, Sprague-Dawley, rat, plasma, iv, 1 mg/kg, methylone 1 mg/kg IV, mean
# [5] = male, Sprague-Dawley, rat, plasma, po, 10 mg/kg, methylone 10 mg/kg oral, individual animals
# [6] = male, Sprague-Dawley, rat, plasma, po, 10 mg/kg, methylone 10 mg/kg oral, mean
# [7] = methylone 1 mg/kg IV, individual animals
# [8] = methylone 10 mg/kg oral, individual animals
smiles,measurement,setting,value
"CNC(C)C(=O)c1ccc2c(c1)OCO2 (racemic) [Methylone, 3,4-methylenedioxy-N-methylcathinone, reference compound]",reported time to achieve peak effects,"[1]; after oral dosing, Poyatos et al., 2021",1 to 2 h
same,Oral Methylone Dose for Drug Activity Level Very Strong,"[1]; human, oral, modified from WHO 2014",≥270 mg
same,prolongation of duration of effects by re-dose,"[1]; re-dose of one-third to one-half the initial dose, WHO 2014",approximately one
same,AUC(0-t),[2]; [3],163 ng·h/mL
same,AUC(0-inf),"[2]; male, Sprague-Dawley, rat, plasma, iv, 1 mg/kg, methylone 1 mg/kg IV, individual animals, read-out: AUC0-inf",168 ng·h/mL
same,Cmax,"[2]; male, Sprague-Dawley, rat, plasma, iv, 1 mg/kg, methylone 1 mg/kg IV, individual animals, read-out: Cmax",192 ng/mL
same,Tmax,"[2]; male, Sprague-Dawley, rat, plasma, iv, 1 mg/kg, methylone 1 mg/kg IV, individual animals, read-out: Tmax",15 min
same,half-life,[2]; [3],24.6 min
same,AUC(0-t),[2]; [4],142 ng·h/mL
same,AUC(0-inf),"[2]; male, Sprague-Dawley, rat, plasma, iv, 1 mg/kg, methylone 1 mg/kg IV, mean, read-out: AUC0-inf",145 ng·h/mL
same,Cmax,"[2]; male, Sprague-Dawley, rat, plasma, iv, 1 mg/kg, methylone 1 mg/kg IV, mean, read-out: Cmax",172 ng/mL
same,Tmax,"[2]; male, Sprague-Dawley, rat, plasma, iv, 1 mg/kg, methylone 1 mg/kg IV, mean, read-out: Tmax",15 min
same,half-life,[2]; [4],23.7 min
same,AUC(0-t),[2]; [5],636 ng·h/mL
same,AUC(0-inf),"[2]; male, Sprague-Dawley, rat, plasma, po, 10 mg/kg, methylone 10 mg/kg oral, individual animals, read-out: AUC0-inf",729 ng·h/mL
same,half-life,[2]; [5],135 min
same,AUC(0-t),[2]; [6],681 ng·h/mL
same,AUC(0-inf),"[2]; male, Sprague-Dawley, rat, plasma, po, 10 mg/kg, methylone 10 mg/kg oral, mean, read-out: AUC0-inf",890 ng·h/mL
same,Cmax,"[2]; male, Sprague-Dawley, rat, plasma, po, 10 mg/kg, methylone 10 mg/kg oral, mean, read-out: Cmax",170 ng/mL
same,Tmax,"[2]; male, Sprague-Dawley, rat, plasma, po, 10 mg/kg, methylone 10 mg/kg oral, mean, read-out: Tmax",70.2 min
same,half-life,[2]; [6],148 min
same,AUC0-last,[2]; [7],134 ng·h/mL and 128 ng·h/mL
same,AUC(0-inf),[2]; [7],136 ng·h/mL and 131 ng·h/mL
same,Cmax,[2]; [7],165 ng/mL and 159 ng/mL
same,Tlast,[2]; [7],2.0 h
same,T½,[2]; [7],22.8 min and 24 min
same,Tlast,"[2]; methylone 1 mg/kg IV, mean",2.0 h
same,AUC0-last,[2]; [8],520 ng·h/mL and 888 ng·h/mL
same,AUC(0-inf),[2]; [8],1050 ng·h/mL
same,Cmax,[2]; [8],130 ng/mL and 119 ng/mL and 260 ng/mL
same,Tlast,[2]; [8],7.00 h
same,Tmax,[2]; [8],60 min and 120 min and 30 min
same,T½,[2]; [8],160 min
same,Tlast,"[2]; methylone 10 mg/kg oral, mean",7.00 h
